Laboratory results: patent publication US7875618B2, “Substituted imidazo[1,5-a]quinoxalines useful as inhibitors of phosphodiesterase 10 for the treatment of neurological and other disorders” (Wyeth, priority 2007, dated 2011)

Target: T1, human recombinant PDE10A (Homo sapiens, UniProt Q9Y233)
T1 construct: made in house; host or cells: SF21 insect cells (baculovirus)
Assay: Inhibition of human recombinant PDE10A ([3H]-cAMP SPA, Method B)
Format: biochemical
Details: read-out: PDE10 inhibition IC50 [nM] PDE10A human
Description: The gene was than inserted into a baculovirus vector, ligated with the baculovirus DNA. The enzyme-protein was expressed in SF21-cells. The enzyme was isolated from these cells by harvesting the cells by a centrifugation at 200 g to collect the cells. The cells were resuspended in 50 mM Tris-HCl/5 mM MgCl2 buffer (pH=7.4) and lysed by a sonication of the cells. The cytosolic PDE10A was obtained by a centrifugation at 48000 g for 1 h in the supernatant and stored at −70° C. PDE10 activity was determined in a one step procedure in microtiterplates. […] Nonspecific activity was tested without the enzyme. The reaction was initiated by addition of the substrate solution and was carried out at 37° C. for 30 minutes. Enzymatic activity was stopped by addition of 25 μl YSi-SPA-beads (Amersham-Pharmacia). One hour later the mixture was measured in a liquid scintillation counter for microtiterplates (Microbeta Trilux). To pipette the incubation mixture a robot Biomek (Fa. Beckman) is used. […] For determination of IC50 values the Hill-plot, 2-parameter-model, was used.

T1 sequence (Q9Y233 1-779 isoform Q9Y233-1): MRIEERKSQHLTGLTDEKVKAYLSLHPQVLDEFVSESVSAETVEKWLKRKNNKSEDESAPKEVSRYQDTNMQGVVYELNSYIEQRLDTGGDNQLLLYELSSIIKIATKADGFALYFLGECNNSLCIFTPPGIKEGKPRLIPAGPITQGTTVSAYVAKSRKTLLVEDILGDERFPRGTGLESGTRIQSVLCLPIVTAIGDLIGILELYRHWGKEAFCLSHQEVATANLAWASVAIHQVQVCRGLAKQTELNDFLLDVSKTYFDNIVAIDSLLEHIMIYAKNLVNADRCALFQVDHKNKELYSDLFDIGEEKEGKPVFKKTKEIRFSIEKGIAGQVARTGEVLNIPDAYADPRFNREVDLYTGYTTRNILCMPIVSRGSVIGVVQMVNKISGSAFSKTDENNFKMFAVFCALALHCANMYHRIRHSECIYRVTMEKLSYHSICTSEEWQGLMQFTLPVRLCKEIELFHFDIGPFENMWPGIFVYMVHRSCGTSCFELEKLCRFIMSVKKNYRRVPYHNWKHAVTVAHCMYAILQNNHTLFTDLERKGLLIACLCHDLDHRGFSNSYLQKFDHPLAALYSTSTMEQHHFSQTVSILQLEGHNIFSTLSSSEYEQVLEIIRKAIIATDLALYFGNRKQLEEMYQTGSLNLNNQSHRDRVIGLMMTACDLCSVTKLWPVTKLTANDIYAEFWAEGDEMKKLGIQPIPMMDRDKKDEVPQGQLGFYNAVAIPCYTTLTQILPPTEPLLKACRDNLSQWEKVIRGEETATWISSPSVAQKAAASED

Compound | IC50 [nM]
COc1cc(F)c2nc(C)c3c(C)nc(-c4ccccc4C)n3c2c1 [Example 31, 6-Fluoro-8-methoxy-3,4-dimethyl-1-(2-methylphenyl)-imidazo[1,5-a]quinoxaline] | ≤ 10
COc1cc(F)c2nc(C)c3c(C)nc(-c4cccc(F)c4C)n3c2c1 [Example 32, 6-Fluoro-1-(3-fluoro-2-methylphenyl)-8-methoxy-3,4-dimethylimidazo[1,5-a]quinoxaline] | ≤ 10
COc1cc(F)c2nc(C)c3c(C)nc(-c4ccc(F)cc4Cl)n3c2c1 [Example 33, 1-(2-Chloro-4-fluorophenyl)-6-fluoro-8-methoxy-3,4-dimethylimidazo[1,5-a]quinoxaline] | ≤ 10
Cc1nc(F)ccc1-c1nc(C)c2c(C)nc3ccc(Cl)cc3n12 [Example 62, 8-chloro-1-(6-fluoro-2-methylpyridin-3-yl)-3,4-dimethylimidazo[1,5-a]quinoxaline] | 10 to 100
Cc1ccccc1-c1nc(C)c2c(C)nc3ccc(Cl)cc3n12 [Example 63, 8-chloro-3,4-dimethyl-1-(2-methylphenyl)imidazo[1,5-a]quinoxaline] | ≤ 10
Cc1nc(-c2cccc(C(N)=O)c2)n2c1c(C)nc1ccc(Cl)cc12 [Example 64, 3-(8-chloro-3,4-dimethylimidazo[1,5-a]quinoxalin-1-yl)benzamide] | ≤ 10
Cc1nc(-c2ccccc2Cl)n2c1c(C)nc1ccc(Cl)cc12 [Example 67, 8-chloro-1-(2-chlorophenyl)-3,4-dimethylimidazo[1,5-a]quinoxaline] | ≤ 10
Cc1nc(-c2ccc(F)c(C(N)=O)c2)n2c1c(C)nc1ccc(Cl)cc12 [Example 68, 5-(8-chloro-3,4-dimethylimidazo[1,5-a]quinoxalin-1-yl)-2-fluorobenzamide] | 10 to 100
Cc1nn(C)c(C)c1-c1nc(C)c2c(C)nc3ccc(Cl)cc3n12 [Example 69, 8-chloro-3,4-dimethyl-1-(1,3,5-trimethyl-1H-pyrazol-4-yl)imidazo[1,5-a]quinoxaline] | 10 to 100
Cc1ccccc1-c1nc(C)c2c(C)nc3c(F)cc(F)cc3n12 [Example 70, 6,8-difluoro-3,4-dimethyl-1-(2-methylphenyl)imidazo[1,5-a]quinoxaline] | ≤ 10
COc1nc(C)c2c(C)nc3c(F)cc(F)cc3n12 [Example 73, 6,8-difluoro-1-methoxy-3,4-dimethylimidazo[1,5-a]quinoxaline] | ≥ 100
COc1cc(F)c2nc(C)c3c(C)nc(-c4ccccc4Cl)n3c2c1 [Example 77, 1-(2-chlorophenyl)-6-fluoro-8-methoxy-3,4-dimethylimidazo[1,5-a]quinoxaline] | ≤ 10
COc1cc(F)c2nc(C)c3c(C)nc(-c4ccc(F)c(C(N)=O)c4)n3c2c1 [Example 78, 2-fluoro-5-(6-fluoro-8-methoxy-3,4-dimethylimidazo[1,5-a]quinoxalin-1-yl)benzamide] | ≤ 10
COc1ccncc1-c1nc(C)c2c(C)nc3c(OC)cc(F)cc3n12 [Example 80, 8-fluoro-6-methoxy-1-(4-methoxypyridin-3-yl)-3,4-dimethylimidazo[1,5-a]quinoxaline] | ≤ 10
COc1cc(F)cc2c1nc(C)c1c(C)nc(-c3ccccc3Cl)n12 [Example 85, 1-(2-chlorophenyl)-8-fluoro-6-methoxy-3,4-dimethylimidazo[1,5-a]quinoxaline] | ≤ 10
Cc1ccsc1-c1nc(C)c2c(C)nc3ccccc3n12 [Example 99, 3,4-dimethyl-1-(3-methyl-2-thienyl)imidazo[1,5-a]quinoxaline] | 10 to 100
Cc1noc(C)c1-c1nc(C)c2c(C)nc3ccccc3n12 [Example 100, 1-(3,5-dimethylisoxazol-4-yl)-3,4-dimethylimidazo[1,5-a]quinoxaline] | ≥ 100
Cc1nc(-c2cccc(C(N)=O)c2)n2c1c(C)nc1ccccc12 [Example 101, 3-(3,4-dimethylimidazo[1,5-a]quinoxalin-1-yl)benzamide] | 10 to 100
